Measurements from US9714250B2, “Crystalline forms of temozolomide and the method for preparing same” (Jiangsu Tasly Diyi Pharmaceutical Co., Ltd., priority 2013, dated 2017).
One block for each compound: values may come before it.

Legend:
Assay type in all cases: physicochemical
Solubility test = conditions: for Amount of solvent for dissolving tested drug: about 10 mg tested drug
Method: It should be noted that each crystalline form of Form A, Form B and Form C has similar solubility properties. Hereinafter, Form A0, B0 and C were chosen only for illustrative purpose.
1. Solubility test of the crystalline Form A of Temozolomide (Form A0 prepared by the method of EXAMPLE 1). Solubility properties were assayed respectively by using DMSO, methanol, water, glacial acetic acid, 0.1M HCl, 0.1M NaOH and ethanol as the solvents.
2. Solubility test of the crystalline form B of Temozolomide (Form B0 prepared by the method of EXAMPLE 6). Solubility properties were assayed respectively by using DMSO, methanol, water, glacial acetic acid, 0.1M HCl, 0.1M NaOH and ethanol as the solvents.
3. Solubility test of the crystalline form C of Temozolomide (Form C prepared by the method of EXAMPLE 14). Solubility properties were assayed respectively by using DMSO, methanol, water, glacial acetic acid, 0.1M HCl, 0.1M NaOH and ethanol as the solvents.

[1] = Light exposure test (stability); conditions: for Stability in the light exposure test (conclusion): 4500±500Lx, 10 days; for Appearance and color / Content / Drying loss / Related substances: light intensity 4500±500Lx; for Related substances: HPLC
Method: (§1) In the following test, related substances were determined as follows: HPLC method was used and chromatographic conditions were as follows: C18 column using octadecylsilane bonded silica gel as the filler, isocratic elution using methanol: 0.5% glacial acetic acid solution (10:90) as the mobile phase, and detection wavelength was at 254 nm.
Crystalline form A of Temozolomide (Form A0 prepared by the method of EXAMPLE 1) was exposed under conditions of light intensity of 4500±500Lx, sampled and determined on the 5th and 10th day.
Crystalline form B of Temozolomide (Form B0 prepared by the method of EXAMPLE 6) was placed, exposed under conditions of light intensity of 4500±500Lx, sampled and determined on the 5th and 10th day.
Crystalline Form C of Temozolomide (Form C prepared by the method of EXAMPLE 14) was placed, exposed under conditions of light intensity of 4500±500Lx, sampled and determined on the 5th and 10th day.

[2] = High temperature test (stability); conditions: for Appearance and color / Content / Drying loss / Related substances: 60° C. incubator; for Related substances: HPLC; for Stability in the high-temperature test (conclusion): 60° C., 10 days
Method: as §1
Crystalline form A of Temozolomide (Form A0 prepared by the method of EXAMPLE 1) was placed in 60° C. incubator, sampled and determined on the 5th and 10th day.
Crystalline Form B of Temozolomide (Form B0 prepared by the method of EXAMPLE 6) was placed in 60° C. incubator, sampled and determined on the 5th and 10th day.
Crystalline Form C of Temozolomide (Form C prepared by the method of EXAMPLE 14) was placed in 60° C. incubator, sampled and determined on the 5th and 10th day.

[3] = High humidity test (stability); conditions: for Stability in the high-humidity test (conclusion) / Appearance and color / Content / Weight gain of moisture absorption / Related substances: 25° C., relative humidity 75±5%; for Stability in the high-humidity test (conclusion): 10 days; for Related substances: HPLC; for Weight gain of moisture absorption (trend): under the high-humidity condition
Method: as §1
Crystalline Form A of Temozolomide (Form A0 prepared by the method of EXAMPLE 1) was placed in 25° C. incubator (relative humidity: 75±5%), sampled and determined on the 5th and 10th day.
Crystalline Form B of Temozolomide (Form B0 prepared by the method of EXAMPLE 6) was placed in 25° C. incubator (relative humidity: 75±5%), sampled and determined on the 5th and 10th day.
Crystalline Form C of Temozolomide (Form C prepared by the method of EXAMPLE 14) was placed in 25° C. incubator (relative humidity: 75±5%), sampled and determined on the 5th and 10th day.

[4] = Stability test, overall conclusions; conditions: light exposure, high-temperature, high-humidity and accelerated tests
Method: as §1
It should be noted that each crystalline form of Form A, Form B and Form C has similar stability properties. Hereinafter, Form A0, Form B0 and Form C were chosen only for illustrative purpose.

- Amount of solvent for dissolving 1 g of tested drug (Solubility test; solvent 0.1M HCl): 700 mL
- Solubility (Solubility test; solvent 0.1M HCl): Slightly soluble
- Amount of solvent for dissolving tested drug (Solubility test; solvent 0.1M HCl): 7 mL
- Amount of solvent for dissolving 1 g of tested drug (Solubility test; solvent 0.1M NaOH): 300 mL
- Solubility (Solubility test; solvent 0.1M NaOH): Slightly soluble
- Amount of solvent for dissolving tested drug (Solubility test; solvent 0.1M NaOH): 3 mL
- Amount of solvent for dissolving 1 g of tested drug (Solubility test; solvent DMSO): 70 mL
- Solubility (Solubility test; solvent DMSO): sparingly
- Amount of solvent for dissolving tested drug (Solubility test; solvent DMSO): 0.7 mL
- Amount of solvent for dissolving 1 g of tested drug (Solubility test; solvent Ethanol): 5500 mL
- Solubility (Solubility test; solvent Ethanol): Very slightly
- Amount of solvent for dissolving tested drug (Solubility test; solvent Ethanol): 55 mL
- Amount of solvent for dissolving 1 g of tested drug (Solubility test; solvent Glacial acetic acid): 300 mL
- Solubility (Solubility test; solvent Glacial acetic acid): Slightly soluble
- Amount of solvent for dissolving tested drug (Solubility test; solvent Glacial acetic acid): 3.0 mL
- Amount of solvent for dissolving 1 g of tested drug (Solubility test; solvent Methanol): 700 mL
- Solubility (Solubility test; solvent Methanol): Slightly soluble
- Amount of solvent for dissolving tested drug (Solubility test; solvent Methanol): 7.0 mL
- Amount of solvent for dissolving 1 g of tested drug (Solubility test; solvent Water): 800 mL
- Solubility (Solubility test; solvent Water): Slightly soluble
- Amount of solvent for dissolving tested drug (Solubility test; solvent Water): 8.0 mL
- Stability in the light exposure test (conclusion) [1]: stable
- Appearance and color ([1]; 0th day): White powder
- Content ([1]; 0th day): 99.94%
- Drying loss ([1]; 0th day): 0.35%
- Related substances ([1]; 0th day): Not detected
- Appearance and color ([1]; 5th day): White powder
- Content ([1]; 5th day): 99.93%
- Drying loss ([1]; 5th day): 0.33%
- Related substances ([1]; 5th day): Not detected
- Appearance and color ([1]; 10th day): White powder
- Content ([1]; 10th day): 99.81%
- Drying loss ([1]; 10th day): 0.39%
- Related substances ([1]; 10th day): Not detected
- Appearance and color ([2]; 0th day): White powder
- Content ([2]; 0th day): 99.94%
- Drying loss ([2]; 0th day): 0.41%
- Related substances ([2]; 0th day): Not detected
- Appearance and color ([2]; 5th day): White powder
- Content ([2]; 5th day): 99.63%
- Drying loss ([2]; 5th day): 0.38%
- Related substances ([2]; 5th day): Not detected
- Appearance and color ([2]; 10th day): White powder
- Content ([2]; 10th day): 99.31%
- Drying loss ([2]; 10th day): 0.34%
- Related substances ([2]; 10th day): Not detected
- Stability in the high-temperature test (conclusion) [2]: stable
- Stability in the high-humidity test (conclusion) [3]: stable
- Appearance and color ([3]; 0th day): White powder
- Content ([3]; 0th day): 99.94%
- Weight gain of moisture absorption ([3]; 0th day): 0%
- Related substances ([3]; 0th day): Not detected
- Appearance and color ([3]; 5th day): White powder
- Content ([3]; 5th day): 99.73%
- Weight gain of moisture absorption ([3]; 5th day): 0.32%
- Related substances ([3]; 5th day): Not detected
- Appearance and color ([3]; 10th day): White powder
- Content ([3]; 10th day): 99.52%
- Weight gain of moisture absorption ([3]; 10th day): 0.51%
- Related substances ([3]; 10th day): Not detected
- Weight gain of moisture absorption (trend) [3]: slightly increased
- Change in the appearance and color, the drying loss, the content and the related substances [4]: no obvious change
SMILES: Cn1nnc2c(C(N)=O)ncn2c1=O [Form A, Temozolomide]

- Amount of solvent for dissolving 1 g of tested drug (Solubility test; solvent 0.1M HCl): 800 mL
- Solubility (Solubility test; solvent 0.1M HCl): Slightly soluble
- Amount of solvent for dissolving tested drug (Solubility test; solvent 0.1M HCl): 8.0 mL
- Amount of solvent for dissolving 1 g of tested drug (Solubility test; solvent 0.1M NaOH): 300 mL
- Solubility (Solubility test; solvent 0.1M NaOH): Slightly soluble
- Amount of solvent for dissolving tested drug (Solubility test; solvent 0.1M NaOH): 3.0 mL
- Amount of solvent for dissolving 1 g of tested drug (Solubility test; solvent DMSO): 80 mL
- Solubility (Solubility test; solvent DMSO): sparingly
- Amount of solvent for dissolving tested drug (Solubility test; solvent DMSO): 0.8 mL
- Amount of solvent for dissolving 1 g of tested drug (Solubility test; solvent Ethanol): 6000 mL
- Solubility (Solubility test; solvent Ethanol): Very slightly
- Amount of solvent for dissolving tested drug (Solubility test; solvent Ethanol): 60 mL
- Amount of solvent for dissolving 1 g of tested drug (Solubility test; solvent Glacial acetic acid): 300 mL
- Solubility (Solubility test; solvent Glacial acetic acid): Slightly soluble
- Amount of solvent for dissolving tested drug (Solubility test; solvent Glacial acetic acid): 3.0 mL
- Amount of solvent for dissolving 1 g of tested drug (Solubility test; solvent Methanol): 800 mL
- Solubility (Solubility test; solvent Methanol): Slightly soluble
- Amount of solvent for dissolving tested drug (Solubility test; solvent Methanol): 8.0 mL
- Amount of solvent for dissolving 1 g of tested drug (Solubility test; solvent Water): 800 mL
- Solubility (Solubility test; solvent Water): Slightly soluble
- Amount of solvent for dissolving tested drug (Solubility test; solvent Water): 8.0 mL
- Stability in the light exposure test (conclusion) [1]: stable
- Appearance and color ([1]; 0th day): White powder
- Content ([1]; 0th day): 99.91%
- Drying loss ([1]; 0th day): 0.27%
- Related substances ([1]; 0th day): Not detected
- Appearance and color ([1]; 5th day): White powder
- Content ([1]; 5th day): 99.90%
- Drying loss ([1]; 5th day): 0.30%
- Related substances ([1]; 5th day): Not detected
- Appearance and color ([1]; 10th day): White powder
- Content ([1]; 10th day): 99.96%
- Drying loss ([1]; 10th day): 0.32%
- Related substances ([1]; 10th day): Not detected
- Appearance and color ([2]; 0th day): White powder
- Content ([2]; 0th day): 99.91%
- Drying loss ([2]; 0th day): 0.35%
- Related substances ([2]; 0th day): Not detected
- Appearance and color ([2]; 5th day): White powder
- Content ([2]; 5th day): 99.79%
- Drying loss ([2]; 5th day): 0.37%
- Related substances ([2]; 5th day): Not detected
- Appearance and color ([2]; 10th day): White powder
- Content ([2]; 10th day): 99.69%
- Drying loss ([2]; 10th day): 0.34%
- Related substances ([2]; 10th day): Not detected
- Stability in the high-temperature test (conclusion) [2]: stable
- Stability in the high-humidity test (conclusion) [3]: stable
- Appearance and color ([3]; 0th day): White powder
- Content ([3]; 0th day): 99.91%
- Weight gain of moisture absorption ([3]; 0th day): 0%
- Related substances ([3]; 0th day): Not detected
- Appearance and color ([3]; 5th day): White powder
- Content ([3]; 5th day): 99.85%
- Weight gain of moisture absorption ([3]; 5th day): 0.29%
- Related substances ([3]; 5th day): Not detected
- Appearance and color ([3]; 10th day): White powder
- Content ([3]; 10th day): 99.63%
- Weight gain of moisture absorption ([3]; 10th day): 0.47%
- Related substances ([3]; 10th day): Not detected
- Weight gain of moisture absorption (trend) [3]: slightly increased
- Change in the appearance and color, the drying loss, the content and the related substances [4]: no obvious change
SMILES: Cn1nnc2c(C(N)=O)ncn2c1=O [Form C, Temozolomide]
